Experimental data taken from US20030157035A1, “PHOTO STABLE ORGANIC SUNSCREEN COMPOUNDS WITH ANTIOXIDANT PROPERTIES AND COMPOSITIONS OBTAINED THEREFROM” (EM Industries, priority 2001, published 2003).
Like-named read-outs stand apart in the source and are kept apart here.

What was measured:
[1] = Photostability in Xe-arc solar simulator (loss of UV absorption); details: 70% ethanol/30% water, about 250 J/cm^2
Method: Compounds are illuminated in a solar simulator incorporating a 1 kw Xe arc lamp, optical bench and illumination chamber. The entire output of the illumination system is focused onto the face of a 1 centimeter Cuvette (an area of 4 cm^2) that contains the dilute samples of a compound of Formula I. The samples experience roughly 250 J/cm^2 of radiation between 290 and 400 nm over a period of two hours. The solutions contain between 0.0056 mg/ml and 2.5 mg/ml.
A solar simulator used for illumination of the samples in the experiments is constructed incorporating a 1 kw Xe arc lamp, optical bench and sample illumination chamber. The lamp output is filtered through a water filter with a course window to remove most of the infrared radiation and optical filters to remove wavelengths below 290 mn. The output of the illumination system is focused onto the face of a 1 cm quartz Cuvette that is thermally equilibrated with a constant temperature water bath at 25° C. A magnetic stir is mounted under the Cuvette so that the samples could be stirred while being illuminated. An electric shutter is controlled by a dark room timer to provide precise control of illumination times. The solar simulator is constructed to provide illumination that closely matches terrestrial sunlight. The solar simulator delivers roughly 250 J/cm^2 over a 2-hour period of illumination in a 290-490 nm range. This irradiance is determined using two nitrobenzaldehyde chemical actinometry. The irradiance is much higher than other solar simulator systems which typically illuminate a large area in order to illuminate many samples simultaneously rather than being focused down to a very small area.
(§1) Each sunscreen compound is dissolved in 70% ethanol/30% water and the UV visible absorption spectrum measured with a Shimadza UV 2101-double beam spectrophotometer using the solvent as reference. A control solution of Octocrylene is prepared and the UV-visible absorption spectrum measured. Each solution is then illuminated for two hours in the solar simulator. After illumination, the absorption spectrum is again measured for each solution.

[2] = UV-visible absorption spectrum; format: physicochemical
Method: as §1

[3] = DPPH test method (reducing activity of DPPH radical); format: biochemical; details: absorbance at 517 nm after 20 minutes
Method: A DPPH working solution is then prepared by diluting 100 mL of this concentrate to a final volume of 250 mL (100 μM/mL). A blank 13×100 mm borosilicate glass screw top tube of ethanol (USP) is used to zero the spectrometer (Milton Roy, Spectronic 20+) at 517 nm and a control tube of DPPH working solution is measured under identical conditions, and taken as 0% activity. […] After 20 minutes, the absorbance of each sample is read at 517 nm.
The percent reducing activity (%RA) is calculated using the following equation: [formula]
Where A(0) is the absorbance value of the DPPH working solution at 517nm zeroed against an ethanol blank and A(20) is the absorbance at 517 nm, 20 minutes after combining the antioxidant with the DPPH working solution.
The concentration of antioxidant (mg/ml) in the final assay mixture is calculated based on the dilution of respective aliquots of each compound in the final assay volume and %RA tabulated and plotted as percent activity at each concentration in the dilution series.
The antioxidant activity of selected compounds of this invention was determined from their reducing activity of a DPPH radical.

[4] = Stabilization of Avobenzone under solar simulator illumination (HPLC); format: physicochemical
Method: Individual solutions of selected sunscreen compounds (see Table 1) with Avobenzone were as follows. Each sunscreen compound was dissolved in 50% ethanol/50% H2O solution containing roughly an equal molar amount of Avobenzone. A similar solution containing Di-2-ethylhexyl-2,6-napthalene dicarboxylic acid (DENDA) and Avobenzone was also prepared. Each solution was then illuminated in the solar simulator as configured above for the photostability tests and aliquots of each solution were removed at 30-minute time intervals. These aliquots were injected into an HPLC and the loss of Avobenzone was followed with illumination time. The high performance liquid chromatograph (HPLC) used for all experiments reported therein incorporated a Spectra-Physics model P-200 pump with an Applied Biosystems model 785A UV-Visible detector with a Rheodyne manual injector incorporating a […] sample loop and a 150×4.6 mm reversed-phase C18 column (Alltech). All analyses were carried out under isocratic elution conditions using […] mixtures for the mobile phase at a flow rate of […] per minute. It was necessary to employ HPLC separation of Avobenzone from each of the sunscreen compounds to quantify Avobenzone due to the absorption spectra overlap with some of these compounds.

[5] = Product/Avobenzone (1:1, w/w), % Loss of Avobenzone by HPLC, solar simulator, 2 hrs

Compound	Photostability % Loss in 2 hrs [1]	λmax, nm (Ethanol) [2]	% Reducing Activity of DPPH Radical at 30 μg/ml [3]	Stabilization of Avobenzone % Loss of Avobenzone in 2 hrs [4]	Stabilization of Avobenzone % Loss of Avobenzone in 2 hrs [4, 5]
COc1ccc(C(=O)CC(=O)c2ccc(C(C)(C)C)cc2)cc1 [Avobenzone, reference compound]	37%	358 nm	–	–	–
CCCCC(CC)COC(=O)C(=Cc1ccc(O)c(OC)c1)C(=O)OCC(CC)CCCC (stereo not shown) [Di-(2-Ethylhexyl)-3-methoxy-4-hydroxy benzylidene malonate]	–	332 nm	7.4%	4.5%	–
COc1cc(C=C(C(=O)OCCC(C)C)C(=O)OCCC(C)C)ccc1O [Di-isoamyl-3-methoxy-4-hydroxy benzylidene malonate]	–	333 nm	9.5%	3.8%	–
COc1cc(C=C(C(C)=O)C(=O)OCCC(C)C)ccc1O [Iso-amyl-alpha-acetyl-3-methoxy-4-hydroxy-cinnamate]	4.1%	339 nm	22%	–	insignificant
COc1cc(C=C(C(C)=O)C(=O)OCCC(C)C)cc(C(C)C)c1O [Isoamyl-alpha-acetyl-3-methoxy-4-hydroxy-5-isopropyl-cinnamate]	3.2%	341 nm	28%	–	insignificant
CCCCC(CC)COC(=O)C(C#N)=C(c1ccccc1)c1ccccc1 (stereo not shown) [Octocrylene, reference compound]	2.8%	303 nm	–	–	1.5%
CCCCC(CC)COC(=O)C(=Cc1cc(OC)c(O)c(C(C)C)c1)C(=O)OCC(CC)CCCC (stereo not shown) [di-(2-ethyhexyl)-3-methoxy-4-hydroxy-5-isopropyl-benzylidene malonate]	–	334 nm	11.2%	2.5%	–
